Test results taken from patent publication US20020137929A1, “1 - (3-heterocyclylphenyl) isothiourea, -isourea, -guanidine and -amidine herbicidal agents” (Intellectual Property Department, BASF Aktiengesellschaft, priority 1998, published 2002).

Key:
[1] = tested on: CYPIR (Rice Flatsedge); experiment: Preemergence weed control under flooded paddy conditions; assay type: in vivo, Cyperus iria; settings: rated 3-4 weeks after treatment
In short: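 Ratings on a 0-9 visual scale cover stand, vigor, malformation, size, chlorosis and overall appearance relative to a control, taken three to four weeks post-treatment. Application was into flood water over freshly sown silt loam at roughly 0.0313 to 0.500 kg/ha.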

[2] = tested on: AMBEL (Ragweed, Common); experiment: Preemergence herbicidal evaluation; assay type: in vivo, Ambrosia artemisifolia; settings: rated 4-5 weeks after treatment
In short: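 Steps: mix seeds into potting soil; plant atop ~1 inch soil; spray compound in aqueous acetone (~0.0156-0.500 kg/ha equivalent); maintain in greenhouse with watering; rate visually 0-9 versus control at 4-5 weeks.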

[3] = rate 0.0156 kg/ha, rating scale 0-9
[4] = rate 0.0313 kg/ha, rating scale 0-9
[5] = rate 0.0625 kg/ha, rating scale 0-9
[6] = rate 0.1250 kg/ha, rating scale 0-9
[7] = rate 0.2500 kg/ha, rating scale 0-9

Row | SMILES | herbicidal effect rating, CYPIR ([1]; 0.0313 kg/ha) | herbicidal effect rating, CYPIR ([1]; 0.0625 kg/ha) | herbicidal effect rating, CYPIR ([1]; 0.1250 kg/ha) | herbicidal effect rating, CYPIR ([1]; 0.2500 kg/ha) | Preemergence herbicidal rating AMBEL ([2]; rate 0.0156 kg/ha) | Preemergence herbicidal rating AMBEL ([2]; rate 0.0313 kg/ha) | Preemergence herbicidal rating AMBEL ([2]; rate 0.0625 kg/ha) | Preemergence herbicidal rating AMBEL ([2]; rate 0.1250 kg/ha) | Preemergence herbicidal rating AMBEL ([2]; rate 0.2500 kg/ha) | Preemergence herbicidal rating AMBEL ([2]; rate 0.5000 kg/ha) | Preemergence herbicidal rating AMBEL [2, 3] | Preemergence herbicidal rating AMBEL [2, 4] | Preemergence herbicidal rating AMBEL [2, 5] | Preemergence herbicidal rating AMBEL [2, 6] | Preemergence herbicidal rating AMBEL [2, 7]
1 | CCOC(=O)CN1C(=O)C(SC)SC1=Nc1cc(-n2c(=O)cc(C(F)(F)F)n(C)c2=O)c(F)cc1Cl (stereo not drawn) [Compound 125, Ethyl 2-{{2-chloro-5-[3,6-dihydro-3-methyl-2,6-dioxo-4-(trifluoromethyl)-1(2H)-pyrimidinyl]-4-fluorophenyl}imino}-5-(methylthio)-4-oxo-3-thiazolidineacetate] | 3.0 | 6.0 | 7.0 | 9.0 | 0.0 | 6.0 | 9.0 | 9.0 | 9.0 | 9.0 | – | – | – | – | –
2 | CCOC(=O)CN1C(=O)C(Cl)SC1=Nc1cc(-n2c(=O)cc(C(F)(F)F)n(C)c2=O)c(F)cc1Cl (stereo not drawn) [Compound 126, Ethyl 5-chloro-2-{{2-chloro-5-[3,6-dihydro-3-methyl-2,6-dioxo-4-(trifluoromethyl)-1(2H)-pyrimidinyl]-4-fluorophenyl}imino}-4-oxo-3-thiazolidineacetate] | 0.0 | 0.0 | 0.0 | 2.0 | – | – | 0.0 | 0.0 | 4.0 | 5.0 | – | – | – | – | –
3 | CCOC(=O)CN1C(=O)C(C(=O)OCC)SC1=Nc1cc(-n2c(=O)cc(C(F)(F)F)n(C)c2=O)c(F)cc1Cl (stereo not drawn) [Compound 127, 5-Carboxy-2-{{2-chloro-5-[3,6-dihydro-3-methyl-2,6-dioxo-4-(trifluoromethyl)-1(2H)-pyrimidinyl]-4-fluorophenyl}imino}-4-oxo-3-thiazolidineacetic acid, diethyl ester] | 2.0 | 2.0 | 4.0 | 4.0 | – | 0.0 | 0.0 | – | 5.0 | 9.0 | – | – | – | – | –
4 | Cc1cccc(CN2C(=O)CSC2=Nc2cc(-n3c(=O)cc(C(F)(F)F)n(C)c3=O)c(F)cc2Cl)c1 [Compound 130, 3-{4-Chloro-2-fluoro-5-{[3-(m-methylbenzyl)-4-oxo-2-thiazolidinylidene]amino}phenyl}-1-methyl-6-(trifluoromethyl)-2,4 (1H, 3H)-pyrimidinedione] | 0.0 | 2.0 | 4.0 | 6.0 | – | – | – | – | – | – | 0.0 | 1.0 | 7.0 | 9.0 | 9.0
5 | COc1cccc(CN2C(=O)CSC2=Nc2cc(-n3c(=O)cc(C(F)(F)F)n(C)c3=O)c(F)cc2Cl)c1 [Compound 137, 3-{4-Chloro-2-fluoro-5-{[3-(m-methoxybenzyl)-4-oxo-2-thiazolidinylidene]amino}phenyl}-1-methyl-6-(trifluoromethyl)-2,4(1H,3H)-pyrimidinedione] | 3.0 | 2.0 | 2.0 | 4.0 | – | – | – | – | – | – | – | – | 0.0 | 0.0 | 7.0
6 | COc1ccc(CN2C(=O)CSC2=Nc2cc(-n3c(=O)cc(C(F)(F)F)n(C)c3=O)c(F)cc2Cl)c(OC)c1 [Compound 139, 3-{4-Chloro-5-{[3-(2,4-dimethoxybenzyl)-4-oxo-2-thiazolidinylidene]amino}-2-fluorophenyl}-1-methyl-6-(trifluoromethyl)-2,4(1H,3H)-pyrimidinedione] | 2.0 | 4.0 | 5.0 | 6.0 | – | – | – | – | – | – | 0.0 | 1.0 | 0.0 | 3.0 | 4.0
7 | Cn1c(C(F)(F)F)cc(=O)n(-c2cc(N=C3SCC(=O)N3Cc3cccc(C(F)(F)F)c3)c(Cl)cc2F)c1=O [Compound 142, 3-{4-Chloro-2-fluoro-5-{{3-[m-(trifluoromethyl)benzyl]-4-oxo-2-thiazolidinylidene}-amino}phenyl}-1-methyl-6-(trifluoromethyl)-2,4(1H,3H)-pyrimidinedione] | 0.0 | 2.0 | 6.0 | 7.0 | – | – | – | – | – | – | 0.0 | 0.0 | 4.0 | 2.0 | 1.0
8 | Cn1c(C(F)(F)F)cc(=O)n(-c2cc(N=C3SCC(=O)N3Cc3ccccc3Cl)c(Cl)cc2F)c1=O [Compound 143] | 0.0 | 3.0 | 4.0 | 4.0 | – | – | – | – | – | – | – | 0.0 | 0.0 | 2.0 | 3.0
9 | Cn1c(C(F)(F)F)cc(=O)n(-c2cc(N=C3SCC(=O)N3Cc3ccc(Cl)cc3)c(Cl)cc2F)c1=O [Compound 145, 3-{4-Chloro-5-{[3-(p-chlorobenzyl)-4-oxo-2-thiazolidinylidene]amino}-2-fluorophenyl}-1-methyl-6-(trifluoromethyl)-2,4(1H,3H)-pyrimidinedione] | 4.0 | 5.0 | 7.0 | 9.0 | – | – | – | – | – | – | 0.0 | 0.0 | 2.0 | 5.0 | 7.0
10 | Cc1ccc(CN2C(=O)CSC2=Nc2cc(-n3c(=O)cc(C(F)(F)F)n(C)c3=O)c(F)cc2Cl)cc1C [Compound 147, 3-{4-Chloro-5-{[3-(3,4-dimethylbenzyl)-4-oxo-2-thiazolidinylidene]amino}-2-fluorophenyl}-1-methyl-6-(trifluoromethyl)-2,4(1H,3H)-pyrimidinedione] | 4.0 | 4.0 | 7.0 | 7.0 | – | – | – | – | – | – | 0.0 | 0.0 | 0.0 | 1.0 | 4.0
11 | Cn1c(C(F)(F)F)cc(=O)n(-c2cc(N=C3SCC(=O)N3C3CC3)c(Cl)cc2F)c1=O [Compound 152, 3-{4-Chloro-5-[(3-cyclopropyl-4-oxo-2-thiazolidinylidene)amino]-2-fluorophenyl}-1-methyl-6-(trifluoromethyl)-2,4(1H,3H)-pyrimidinedione] | – | 0.0 | 0.0 | 0.0 | – | – | – | – | – | – | – | 0.0 | 0.0 | 2.0 | 6.0
